Where two headings read alike, the source gives them in different places.
Columns and labels:
SREBP = test: Reporter screening assay (SRE-luciferase reporter construct); assay type: cell-based; settings: Homo sapiens; SREBPv1 reporter cell line HepG2, 24 hours, 0.01 uM to 10 uM; read-out: Reporter Screening IC50 (nM) Activity Range
Method: This assay was used to evaluate the effect on transcriptional activity SREBP of the compounds synthesized according to Examples 1-16, 20, and 22, using an SRE-luciferase reporter construct. On day 1, 10,000 cells were seeded in a 96 well (white) plate as per the plate map in Growth media without antibiotics. Cells were incubated at 37° C. for 8 hours. After 8 hours, cells were washed with DPBS for complete removal of FBS. DPBS was completely removed and Growth media was replaced with phenol free treatment medium (90 μl) with different FBS concentrations. The cells were then incubated at 37° C. for 24 hours with varying doses (0.01 uM to 10 uM) of compounds. Then a Luciferase assay was performed.
Reagents for performing Luciferase assay were stored at −20° C. To a tube of lyophilized assay substrate was added 1 mL Substrate Solvent and mixed well. The Substrate tube after reconstitution was covered with aluminum foil so as to keep it protected from light. The assay buffer was thawed to room temperature. To 20 mL Assay Buffer was added 200 μL of reconstituted 100× Substrate and mixed well. The reconstituted substrate as well as the assay solution (buffer+substrate) was protected from light throughout the procedure by keeping it covered with aluminum foil.
Using a multi-channel pipette, 100 μL Assay Solution (buffer+substrate) was added directly to each sample well in Plate 1, which was incubated for 30 min (plate was covered with aluminum foil). After 30 min incubation, the plate was read for total luminescence. Each well was read for 2 seconds in a plate luminometer. (Microplate reader Envision Microplate reader from Perkin Elmer). Precaution was taken to incubate plate exactly for 30 min prior to reading on the plate reader.
Materials: SREBPv1 Reporter cell line: HepG2—#32251. Growth Medium: MEM (Corning 10-010), 10% FBS, 1% GlutaMax (Invitrogen Catalog #35050061), […] (Invitrogen Catalog #A1113803) and 1% Penicillin-Streptomycin (Pen-Strep). Treatment Media: Phenol-free MEM (Invitrogen Catalog #51200-038) and 1% GlutaMax (Invitrogen Catalog #35050061). Luciferase Assay: LightSwitch Luciferase Assay Kit (Catalog #32032). LDH assay: Pierce LDH Cytotoxicity Assay Kit (Catalog #SD249616).

[1] = In vivo pharmacokinetic properties in rats (IV and PO); parameters: species or system male Sprague Dawley rats
Method: (§1) The in vivo pharmacokinetic properties of compounds by both intravenous and oral administration were evaluated in male Sprague Dawley rats or C57BL/6J mice.
(§2) Animals were housed in cages with clean bedding. Certified rodent diet was provided. Water was available ad libitum. Environmental controls for the animal room were set to maintain a temperature of 22° C. to 25° C., humidity of 40-70% RH, and a 12-hour light/12-hour dark cycle. Normal healthy animals certified by the attending veterinarian were selected and acclimatized for minimum three days prior to initiation of study.
Surgical Procedure for Jugular Vein Cannulation of Rats: Rats were anaesthetized with a single dose of ketamine 50 mg/kg i.p.+xylazine 6 mg/kg i.p. The right jugular vein was exposed, a loose ligature was placed caudally, and the cranial end of vein was ligated. A small incision was made between the ligatures into which the catheter (polyethylene 50 tubing of internal diameter 0.58 mm and outer diameter 0.96 mm) was inserted. The catheter was secured in place by tying the loose ligature around the catheterized vessel. A small incision was made in the scapular region to serve as the exit site of the catheter. The catheter was subcutaneously tunneled and exteriorized through scapular incision. A stay suture was placed in the scapular area. Patency was tested, and catheter was filled with a locking solution (heparinized saline) and sealed with a stainless steel plug. The incision was then sutured with sterile suturing material. Anti-septic solution was applied to the sutured site and animal was placed back in the home cage.
(§3) To evaluate pharmacokinetic properties of intravenous delivery, male Sprague Dawley rats were administered 2.00 mg compound/kg animal weight through the tail vein. The concentration of the compound in the plasma of the animals was evaluated at 0.083, 0.25, 0.5, 1, 2, 4, 8, 12 and 24 hr by taking blood samples from the cannulated jugular vein. For the C5Bl/6J mice, blood samples were collected through a capillary, guided in retro-orbital plexus.
To evaluate pharmacokinetic properties of oral delivery, rats (male Sprague Dawley rats) or mice (C5Bl/6J) were administered 10 mg compound/kg animal weight by mouth. The concentration of compound in the plasma of the animals was evaluated at 0.25, 0.5, 1, 2, 4, 6, 8, 12 and 24 hr by taking blood samples from the cannulated jugular vein (rats) or through a capillary, guided in retro-orbital plexus (mice).

[2] = Log D by octanol/aqueous buffer partitioning; assay type: physicochemical; settings: 1-octanol/aqueous buffer; pH 7.4, 1-octanol/buffer; read-out: LogD
Method: The Log D of selected compounds was evaluated by octanol/aqueous buffer partitioning. 500 μL of organic phase (1-octanol) was added to each well of a 2 mL deep well plate, followed by 500 μL of buffer and 15 μL of test compound in DMSO (0.15 mM). The plate was vortexed for 10 seconds and incubated at room temperature for 1 hr on a plate shaker at 200 rpm. After incubation, the samples were allowed to equilibrate for 20 min and then centrifuged at 4000 rpm for 30 min for complete phase separation. The distribution of test compound in buffer and octanol phase was analyzed by HPLC-UV. Log D=Log (Area of Octanol/Area of Buffer).

[3] = In vivo pharmacokinetic properties in mice (IV and PO); parameters: species or system C57BL/6J mice; settings: mouse, in vivo
Method: as §1, §2, §3
[…] The concentration of compound in the plasma of the animals was evaluated at 0.25, 0.5, 1, 2, 4, 6, 8, 12 and 24 hr by taking blood samples from the cannulated jugular vein (rats) or through a capillary, guided in retro-orbital plexus (mice).

[4] = system: liver gene expression (ACACA, ACLY, FASN, LSS, PNPLA3); test: Liver gene expression in mice after oral administration; assay type: in vivo; settings: 30 mpk, vs vehicle
Method: (§4) The pharmacodynamic properties of selected compounds were evaluated in mice. The animals were housed in cages with clean bedding, and maintained and monitored for good health in accordance with Test Facility SOPs and at the discretion of the laboratory animal veterinarian. Certified rodent diet was provided. Food and water was available ad libitum. Environmental controls for the animal room were set to maintain a temperature of 22° C. to 25° C., humidity of 40-70% RH, and a 12-hour light/[…]. Normal healthy animals certified by the attending veterinarian were selected and acclimatized for minimum three days prior to initiation of study. Animals were identified with body markings.
(§5) Aliquots of the compounds being evaluated were weighed and triturated with 0.5% methylcellulose (with the addition of 5% N-methyl pyrrolidone when required to remove clumping, as for Z-806) to an appropriate dose concentration. Vials were labeled with the information about study number, test item, concentration and date of preparation. A description of appearance of formulation was recorded (e.g., color, turbidity, etc.). The composition of formulation vehicle was recorded. An aliquot of each dose solution was taken before the dosing began and after dosing was finished, and stored at approximately −20° C. or below for subsequent analysis. The animals were dosed orally through oral gavage needle, and time of dosing was recorded.
(§6) Liver Collection at 6 h or 24 h: Immediately after blood withdrawal for pharmacokinetic evaluation (at 6 or at 24 h), liver tissue was collected without perfusion. Animals were euthanized using carbon dioxide gas in a CO2 chamber. The whole blood was drained by cutting the both side jugular vein and abdominal aorta. The liver was separated out. All the liver samples were divided in two parts. The first part (200 mg approx.) was snap frozen using liquid nitrogen as soon as possible. These samples were immediately transferred to −80° C. for storage. The remaining part was weighed and used for bioanalysis.
RNA Processing and Gene Expression Analysis: Liver Tissue RNA was harvested with the RNEasy kit and 20-100 ng used to synthesize cDNA with random primers following the manufacturer's protocol. Quantitative PCR was performed on 1 pg to 100 ng cDNA for the following genes: ACACA, ACLY, FASN, LSS, PNPLA3. Gene expression levels were determined using ΔΔCT method comparing treated to vehicle treated samples as a baseline, and fold change calculated. The average value for all 5 genes above was averaged and termed to Total Fold Change The results from this evaluation are presented in Table 8.

[5] = Plasma and liver compound levels in mice after oral administration; assay type: in vivo; settings: 30 mpk
Method: as §4, §5
After dosing, the mice were anesthetized using gaseous anesthesia. Blood samples were collected through a capillary, guided in retro-orbital plexus, at 6 h or at 24 h. Approximately 100 uL of blood was collected from each mouse, in pre-labeled tubes. The collected blood was stored on ice prior to centrifugation. Blood samples were then centrifuged within 1 hour of collection to separate plasma. Centrifugation was conducted at 2500×g for 15 minutes at 4° C. The plasma was separated and transferred to pre-labeled micro-centrifuge tubes and promptly frozen at −80±10° C. until bioanalysis.
as §6

## O=C(c1ccc(-c2cncc(-c3ccnc(C4OCCO4)c3)c2)c(Cl)c1)N1CCC(O)CC1 [Compound 12, (4-(2′-(1,3-dioxolan-2-yl)-[3,4′-bipyridin]-5-yl)-3-chlorophenyl)(4-hydroxypiperidin-1-yl)methanone]
SREBP
  IC50: ≤ 1000 nM

## CC(C)(C)OC(=O)NC1CCCN(C(=O)c2ccc(-c3cncc(-c4ccnc(C(C)(C)C)c4)c3)c(Cl)c2)C1 (stereo not shown) [Compound 13, tert-butyl (1-(4-(2′-(tert-butyl)-[3,4′-bipyridin]-5-yl)-3-chlorobenzoyl)piperidin-3-yl)carbamate]
SREBP
  IC50: ≤ 500 nM

## CC(C)(C)c1cc(-c2cncc(-c3ccc(C(=O)N4CCCC(O)C4)cc3Cl)c2)ccn1 (stereo not shown) [Compound 14, (4-(2′-(tert-butyl)-[3,4′-bipyridin]-5-yl)-3-chlorophenyl)(3-hydroxypiperidin-1-yl)methanone]
SREBP
  IC50: ≤ 100 nM

## COC1CCCN(C(=O)c2ccc(-c3cncc(-c4ccnc(C(C)(C)C)c4)c3)c(Cl)c2)C1 (stereo not shown) [Compound 15, (4-(2′-(tert-butyl)-[3,4′-bipyridin]-5-yl)-3-chlorophenyl)(3-methoxypiperidin-1-yl)methanone]
SREBP
  IC50: ≤ 100 nM

## CC(C)OC(=O)Nc1ccc(-c2cncc(-c3ccnc(C(C)(C)C)c3)c2)c(Cl)c1 [Compound 16, isopropyl (4-(2′-(tert-butyl)-[3,4′-bipyridin]-5-yl)-3-chlorophenyl)carbamate]
SREBP
  IC50: ≤ 500 nM

## CC(C)OC(=O)Nc1ccc(-c2cncc(-c3ccnc(C4OCCO4)c3)c2)c(Cl)c1 [Compound 20, Isopropyl (4-(2′-(1,3-dioxolan-2-yl)-[3,4′-bipyridin]-5-yl)-3-chlorophenyl)carbamate]
SREBP
  IC50: ≤ 500 nM

## CC1(O)CCCN(C(=O)c2ccc(-c3cncc(-c4ccnc(C(C)(C)C)c4)c3)c(Cl)c2)C1 (stereo not shown) [Compound 22, (4-(2′-(tert-butyl)-[3,4′-bipyridin]-5-yl)-3-chlorophenyl)(3-hydroxy-3-methylpiperidin-1-yl)methanone]
SREBP
  IC50: ≤ 500 nM

## CC(C)(C)c1cc(-c2cncc(-c3ccc(NS(C)(=O)=O)cc3Cl)c2)ccn1 [Compound Z-803, N-(4-(2′-(tert-butyl)-[3,4′-bipyridin]-5-yl)-3-chlorophenyl)methanesulfonamide]
[1]; male, Sprague Dawley, rat, plasma, 10 mg/kg, heading: Oral Administration AUC0-last, PO, 10 mg/kg
  AUC(0-t): 2580 ng·h/mL
[1]; male, Sprague Dawley, rat, plasma, IV, 2 mg/kg, read-out: Intravenous Delivery (IV) AUC0-last
  AUC(0-t): 6160 ng·h/mL
[1]; male, Sprague Dawley, rat, plasma, IV, 2 mg/kg, read-out: Intravenous Delivery (IV) CL
  clearance: 5.2 mL/min/kg
[1]; male, Sprague Dawley, rat, plasma, IV, 2 mg/kg, read-out: Intravenous Delivery (IV) T1/2 (converted)
  half-life: 4.86 h
[1]; male, Sprague Dawley, rat, plasma, IV, 2 mg/kg, read-out: Intravenous Delivery (IV) Vd
  Vd: 2.18 L/kg
[1]; male, Sprague Dawley, rat, plasma, PO 10 mg/kg vs IV 2 mg/kg, read-out: % F (Bioavailability of oral delivery)
  bioavailability: 8.3%
[1]; male, Sprague Dawley, rat, plasma, PO, 10 mg/kg, read-out: Oral Administration (PO) T1/2 (converted)
  half-life: 4.37 h
[1]; male, Sprague Dawley, rat, plasma, PO, 10 mg/kg, read-out: Oral Administration (PO) Tmax
  Tmax: 3.33 h
[2]
  LogD: 3.84

## CC(C)(C)c1cc(-c2cncc(-c3c(Cl)cc(C(=O)N4CCC(O)CC4)cc3Cl)c2)ccn1 [Z-826]
[1]; IV, 2 mg/kg
  Intravenous Delivery (IV) CL: 10.7 mL/min/kg
  Intravenous Delivery (IV) T1/2: 3.19 h
  Intravenous Delivery (IV) Vd: 2.97 L/kg
[1]; PO 10 mg/kg vs IV 2 mg/kg
  % F (Bioavailability of oral delivery): 35%
[1]; PO, 10 mg/kg
  Oral Administration (PO) AUC0-last: 5387
  Oral Administration (PO) T1/2: 3.05 h
  Oral Administration (PO) Tmax: 1 h
[3]
  % F (Bioavailability of oral delivery): 82%
[3]; iv, 2 mg/kg
  Intravenous Delivery (IV) AUC0-last: 3930 ng·h/mL
  Intravenous Delivery (IV) CL: 8.45 mL/min/kg
  Intravenous Delivery (IV) T1/2: 3.24 h
  Intravenous Delivery (IV) Vd: 2.37 L/kg
[3]; po, 10 mg/kg
  Oral Administration (PO) AUC0-last: 15000 ng·h/mL
  Oral Administration (PO) T1/2: 6.2 h
  Oral Administration (PO) Tmax: 0.25 h
[4]; 6 h
  Total Gene FC Time (6 h): + (>0.751 = +)
[4]; 24 h
  Total Gene FC Time (24 h): ++ (0.51-0.7509 = ++)
[5]; 6 h
  Liver ng/mg (6 h): >1000 ng/mg
  Plasma ng/mL (6 h): >1000 ng/mL
[5]; 24 h
  Liver ng/mg 24 h: >1000 ng/mg
  Plasma ng/mL (24 h): 100 to 1000 ng/mL
